Consider 3 compounds from BindingDB's records for doi:10.1021/jm025550h (Abbott Laboratories, 2002).

A short description of experiment [1]: Effective concentration in vitro against rabbit urethra Alpha-1 adrenergic receptor.
Experiment [2] in a line: Effective concentration in vitro against rabbit urethra Alpha-1A adrenergic receptor.

Compound `COc1ccc(OC)c(C(O)CN)c1` (stereo not drawn) gave an EC50 in experiment [1] of 7.1 µM.

In the case of `CC(N)C(O)c1ccccc1` [(1R, 2S)-2-Amino-1-phenyl-propan-1-ol], in experiment [1], the response was half-maximal at 230 µM (EC50).

On to `CCS(=O)(=O)Nc1cccc(Cc2cnc[nH]2)c1` [ABT-866], for which, in experiment [2], a half-maximal effect (EC50) was put at 0.6 µM.

By EC50 is commonly meant the concentration giving half of the maximal effect. Low values mean higher potency in that assay, high ones lower potency in that assay.
